Results: patent publication US9738634B2, “Heterocyclic amide compound and herbicide” (SYNGENTA PARTICIPATIONS AG, priority 2013, dated 2017)

Columns and labels:
Type in all cases: in vivo
Indian mallow [1] = test: Test Example 4: weedkilling efficacy by foliar treatment; K: Indian mallow; settings: treatment dosage 315 g/ha
Summary of the method: (§1)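 Seeds are spot-sown into sterilized diluvial soil and covered with about 1.5 cm of soil. After 14 days' greenhouse growth at 25 to 30° C, plants are sprayed on stems and leaves with diluted emulsion at the stated g/ha rate, then scored at 3 weeks.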

soybean [2] = test: Test Example 4: foliar treatment, effect on crop; d: soybean; settings: treatment dosage 315 g/ha
Summary of the method: as §1

crabgrass [3] = test: Test Example 4: weedkilling efficacy by foliar treatment; D: crabgrass; settings: treatment dosage 315 g/ha
Summary of the method: as §1

transplanted rice = test: Test Example 1: preemergent weed treatment in the submerged state, effect on crop; a: transplanted rice; settings: treatment dosage 252 g/ha
Summary of the method: (§2)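 Alluvial soil in Wagner pots flooded to 4 cm; barnyard grass, bulrush and oval-leafed pondweed seeds sown, then 2.5-leaf rice seedlings transplanted. Same day, emulsified compound diluted in water to set g/ha dosages and applied to water surface; greenhouse 25–30 °C, effect scored by criteria after 3 weeks.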

wheat [4] = test: Test Example 4: foliar treatment, effect on crop; e: wheat; settings: treatment dosage 315 g/ha
Summary of the method: as §1

fig-leafed goosefoot [5] = test: Test Example 3: weedkilling efficacy through soil treatment; M: fig-leafed goosefoot; settings: treatment dosage 315 g/ha
Summary of the method: (§3)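 Crop and weed responses were judged three weeks after a uniform surface spray of the water-diluted emulsion at the given g/ha rate. Seeds sat beneath about 1.5 cm of sterilized diluvial soil, and boxes stood in a greenhouse at 25 to 30° C.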

crabgrass [6] = test: Test Example 3: weedkilling efficacy through soil treatment; D: crabgrass; settings: treatment dosage 315 g/ha
Summary of the method: as §3

catchweed = test: Test Example 4: weedkilling efficacy by foliar treatment; O: catchweed; settings: treatment dosage 315 g/ha
Summary of the method: as §1

oval-leafed pondweed [7] = test: Test Example 1: weedkilling efficacy, preemergent weed treatment in the submerged state; C: oval-leafed pondweed; settings: treatment dosage 252 g/ha
Summary of the method: as §2

corn [8] = test: Test Example 3: soil treatment, effect on crop; c: corn; settings: treatment dosage 315 g/ha
Summary of the method: as §3

black-grass [9] = test: Test Example 4: weedkilling efficacy by foliar treatment; H: black-grass; settings: treatment dosage 315 g/ha
Summary of the method: as §1

Italian ryegrass [10] = test: Test Example 4: weedkilling efficacy by foliar treatment; I: Italian ryegrass; settings: treatment dosage 315 g/ha
Summary of the method: as §1

birds-eye speedwell [11] = test: Test Example 4: weedkilling efficacy by foliar treatment; p: birds-eye speedwell; settings: treatment dosage 315 g/ha
Summary of the method: as §1

fig-leafed goosefoot [12] = test: Test Example 4: weedkilling efficacy by foliar treatment; M: fig-leafed goosefoot; settings: treatment dosage 315 g/ha
Summary of the method: as §1

bulrush [13] = test: Test Example 2: weedkilling efficacy, growth period weed treatment in the submerged state; B: bulrush; settings: treatment dosage 252 g/ha
Summary of the method: (§4)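 First, alluvial soil in pots is flooded to 4 cm and mixed seed is sown. Next, plants grow in a greenhouse at 25 to 30° C until the 1-2 leaf stage. Then diluted emulsion is applied onto the water surface at the given g/ha rate, and injury is assessed after 3 weeks.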

beet [14] = test: Test Example 3: soil treatment, effect on crop; f: beet; settings: treatment dosage 315 g/ha
Summary of the method: as §3

wild oat [15] = test: Test Example 4: weedkilling efficacy by foliar treatment; G: wild oat; settings: treatment dosage 315 g/ha
Summary of the method: as §1

green foxtail [16] = test: Test Example 4: weedkilling efficacy by foliar treatment; E: green foxtail; settings: treatment dosage 315 g/ha
Summary of the method: as §1

chickweed [17] = test: Test Example 3: weedkilling efficacy through soil treatment; N: chickweed; settings: treatment dosage 315 g/ha
Summary of the method: as §3

directly sown rice [18] = test: Test Example 4: foliar treatment, effect on crop; b: directly sown rice; settings: treatment dosage 315 g/ha
Summary of the method: as §1

black-grass [19] = test: Test Example 3: weedkilling efficacy through soil treatment; H: black-grass; settings: treatment dosage 315 g/ha
Summary of the method: as §3

corn [20] = test: Test Example 4: foliar treatment, effect on crop; c: corn; settings: treatment dosage 315 g/ha
Summary of the method: as §1

birds-eye speedwell [21] = test: Test Example 3: weedkilling efficacy through soil treatment; p: birds-eye speedwell; settings: treatment dosage 315 g/ha
Summary of the method: as §3

Indian mallow [22] = test: Test Example 3: weedkilling efficacy through soil treatment; K: Indian mallow; settings: treatment dosage 315 g/ha
Summary of the method: as §3

barnyard grass [23] = test: Test Example 1: weedkilling efficacy, preemergent weed treatment in the submerged state; A: barnyard grass; settings: treatment dosage 252 g/ha
Summary of the method: as §2

redroot pigweed [24] = test: Test Example 3: weedkilling efficacy through soil treatment; L: redroot pigweed; settings: treatment dosage 315 g/ha
Summary of the method: as §3

wild oat [25] = test: Test Example 3: weedkilling efficacy through soil treatment; G: wild oat; settings: treatment dosage 315 g/ha
Summary of the method: as §3

oval-leafed pondweed [26] = test: Test Example 2: weedkilling efficacy, growth period weed treatment in the submerged state; C: oval-leafed pondweed; settings: treatment dosage 252 g/ha
Summary of the method: as §4

green foxtail [27] = test: Test Example 3: weedkilling efficacy through soil treatment; E: green foxtail; settings: treatment dosage 315 g/ha
Summary of the method: as §3

wheat [28] = test: Test Example 3: soil treatment, effect on crop; e: wheat; settings: treatment dosage 315 g/ha
Summary of the method: as §3

beet [29] = test: Test Example 4: foliar treatment, effect on crop; f: beet; settings: treatment dosage 315 g/ha
Summary of the method: as §1

bulrush [30] = test: Test Example 1: weedkilling efficacy, preemergent weed treatment in the submerged state; B: bulrush; settings: treatment dosage 252 g/ha
Summary of the method: as §2

Italian ryegrass [31] = test: Test Example 3: weedkilling efficacy through soil treatment; I: Italian ryegrass; settings: treatment dosage 315 g/ha
Summary of the method: as §3

soybean [32] = test: Test Example 3: soil treatment, effect on crop; d: soybean; settings: treatment dosage 315 g/ha
Summary of the method: as §3

chickweed [33] = test: Test Example 4: weedkilling efficacy by foliar treatment; N: chickweed; settings: treatment dosage 315 g/ha
Summary of the method: as §1

barnyard grass [34] = test: Test Example 2: weedkilling efficacy, growth period weed treatment in the submerged state; A: barnyard grass; settings: treatment dosage 252 g/ha
Summary of the method: as §4

directly sown rice [35] = test: Test Example 3: soil treatment, effect on crop; b: directly sown rice; settings: treatment dosage 315 g/ha
Summary of the method: as §3

redroot pigweed [36] = test: Test Example 4: weedkilling efficacy by foliar treatment; L: redroot pigweed; settings: treatment dosage 315 g/ha
Summary of the method: as §1

CC1=C(c2ccccc2)C(=O)N(C(C)(C)C(=O)Nc2nc(Cl)ns2)CO1 [B-1-12]
K (Indian mallow) weedkilling efficacy grade (Indian mallow [1]): 3 (weed kill ratio 40% or more, less than 70%)
d (soybean) effect on crop grade (soybean [2]): 0 (weed kill ratio 5% or less (practically no effect))
D (crabgrass) weedkilling efficacy grade (crabgrass [3]): 5 (weed kill ratio 90% or more, (practically complete withering))
a (transplanted rice) effect on crop grade (transplanted rice): 0 (weed kill ratio 5% or less (practically no effect))
e (wheat) effect on crop grade (wheat [4]): 0 (weed kill ratio 5% or less (practically no effect))
M (fig-leafed goosefoot) weedkilling efficacy grade (fig-leafed goosefoot [5]): 4 (weed kill ratio 70% or more, less than 90%)
D (crabgrass) weedkilling efficacy grade (crabgrass [6]): 5 (weed kill ratio 90% or more, (practically complete withering))
O (catchweed) weedkilling efficacy grade (catchweed): 3 (weed kill ratio 40% or more, less than 70%)
C (oval-leafed pondweed) weedkilling efficacy grade (oval-leafed pondweed [7]): 5 (weed kill ratio 90% or more, (practically complete withering))
c (corn) effect on crop grade (corn [8]): 5 (weed kill ratio 90% or more, (practically complete withering))
H (black-grass) weedkilling efficacy grade (black-grass [9]): 4 (weed kill ratio 70% or more, less than 90%)
I (Italian ryegrass) weedkilling efficacy grade (Italian ryegrass [10]): 1 (weed kill ratio 5% or more, less than 20%)
P (birds-eye speedwell) weedkilling efficacy grade (birds-eye speedwell [11]): 3 (weed kill ratio 40% or more, less than 70%)
M (fig-leafed goosefoot) weedkilling efficacy grade (fig-leafed goosefoot [12]): 4 (weed kill ratio 70% or more, less than 90%)
B (bulrush) weedkilling efficacy grade (bulrush [13]): 5 (weed kill ratio 90% or more, (practically complete withering))
f (beet) effect on crop grade (beet [14]): 5 (weed kill ratio 90% or more, (practically complete withering))
G (wild oat) weedkilling efficacy grade (wild oat [15]): 3 (weed kill ratio 40% or more, less than 70%)
E (green foxtail) weedkilling efficacy grade (green foxtail [16]): 5 (weed kill ratio 90% or more, (practically complete withering))
N (chickweed) weedkilling efficacy grade (chickweed [17]): 4 (weed kill ratio 70% or more, less than 90%)
b (directly sown rice) effect on crop grade (directly sown rice [18]): 3 (weed kill ratio 40% or more, less than 70%)
H (black-grass) weedkilling efficacy grade (black-grass [19]): 4 (weed kill ratio 70% or more, less than 90%)
c (corn) effect on crop grade (corn [20]): 5 (weed kill ratio 90% or more, (practically complete withering))
P (birds-eye speedwell) weedkilling efficacy grade (birds-eye speedwell [21]): 4 (weed kill ratio 70% or more, less than 90%)
K (Indian mallow) weedkilling efficacy grade (Indian mallow [22]): 4 (weed kill ratio 70% or more, less than 90%)
A (barnyard grass) weedkilling efficacy grade (barnyard grass [23]): 5 (weed kill ratio 90% or more, (practically complete withering))
L (redroot pigweed) weedkilling efficacy grade (redroot pigweed [24]): 4 (weed kill ratio 70% or more, less than 90%)
G (wild oat) weedkilling efficacy grade (wild oat [25]): 3 (weed kill ratio 40% or more, less than 70%)
C (oval-leafed pondweed) weedkilling efficacy grade (oval-leafed pondweed [26]): 5 (weed kill ratio 90% or more, (practically complete withering))
E (green foxtail) weedkilling efficacy grade (green foxtail [27]): 5 (weed kill ratio 90% or more, (practically complete withering))
e (wheat) effect on crop grade (wheat [28]): 0 (weed kill ratio 5% or less (practically no effect))
f (beet) effect on crop grade (beet [29]): 4 (weed kill ratio 70% or more, less than 90%)
B (bulrush) weedkilling efficacy grade (bulrush [30]): 5 (weed kill ratio 90% or more, (practically complete withering))
I (Italian ryegrass) weedkilling efficacy grade (Italian ryegrass [31]): 2 (weed kill ratio 20% or more, less than 40%)
d (soybean) effect on crop grade (soybean [32]): 0 (weed kill ratio 5% or less (practically no effect))
N (chickweed) weedkilling efficacy grade (chickweed [33]): 4 (weed kill ratio 70% or more, less than 90%)
A (barnyard grass) weedkilling efficacy grade (barnyard grass [34]): 5 (weed kill ratio 90% or more, (practically complete withering))
b (directly sown rice) effect on crop grade (directly sown rice [35]): 5 (weed kill ratio 90% or more, (practically complete withering))
L (redroot pigweed) weedkilling efficacy grade (redroot pigweed [36]): 0 (weed kill ratio 5% or less (practically no effect))
